The values below come from paper PMC8156508, “Ileo-Colon Targeting of the Poorly Water-Soluble Drug Celecoxib Using a pH-Dependent Coating in Combination with Self-Emulsifying Drug Delivery or Solid Dispersion Systems” (Pharmaceutics, 2021).

Each structure is given as a SMILES string.

A short description of data set [1]: Saturation concentration of CXB in oily phases, surfactants and co-surfactants/co-solvents. Format: physicochemical. The conditions noted are these: 30 °C. As to the method:
To assess the saturation concentration of CXB in different oily phases (Capryol 90, Captex 200 P, Captex 355 EP/NF, isopropyl myristate, Maisine CC, and Peceol), surfactants (Cremophor RH40, Labrasol, Tween 20, and Tween 80), and co-surfactants/co-solvents (Capmul PG-8 NF, PEG 400, Plurol oleique CC 497, and tetraglycol), an excess amount of CXB was added to the liquid excipients and placed in a tube rotator at 20 rpm and 30 °C for a day. After that, samples were centrifuged at 14,000 rpm for 20 min and the supernatant was appropriately diluted in methanol. The drug concentration was determined at 252 nm with a UV-VIS spectrophotometer Unicam UV 500A (Gemini, Apeldoorn, The Netherlands).

The conditions of data set [2]: pH 7; cited from earlier work.
Details of data set [3]: method as in PMID 26401428. Particulars: cited from earlier work.
On the set-up of data set [4]: method as in PMID 14603484. Particulars: rats; cited from earlier work.
On the set-up of data set [5]: method as in PMID 26146768. The conditions noted are these: cited from earlier work.

On to `Cc1ccc(-c2cc(C(F)(F)F)nn2-c2ccc(S(N)(=O)=O)cc2)cc1` [CXB, Celecoxib], for which the “solubility of CXB in surfactants” value in data set [1] (Tween 20, Tween 80, cremophor RH40, Labrasol ALF) is listed as “comparable CXB solubilities”. In data set [1] (in PEG 400 and tetraglycol), the “solubility of CXB in co-surfactants/co-solvents” value is reported as “highest solubility”. Moreover, in data set [1] (in capryol 90, among six oily phases), the “solubility of CXB in oily phases” value is listed as “highest amount”. The solubility in data set [2] is 3 to 7 µg/mL.

As to `CCCCCCCCCCCCOS(=O)(=O)[O-].[Na+]` [SDS, sodium dodecyl sulfate], the critical micelle concentration in data set [3] is given as 8 mM.

In the case of `CC(=O)O[C@H]1C(=O)[C@@]2(C)[C@H]([C@H](OC(=O)c3ccccc3)[C@]3(O)C[C@H](OC(=O)[C@H](O)[C@@H](NC(=O)c4ccccc4)c4ccccc4)C(C)=C1C3(C)C)[C@]1(OC(C)=O)CO[C@@H]1C[C@@H]2O` [paclitaxel], in data set [4], the “higher bioavailability by HPMC precipitation inhibition in SEDDS” value is 5 fold.

For `C[C@]12C=CC(=O)C=C1CC[C@@H]1[C@@H]2[C@@H](O)C[C@@]2(C)[C@H]1CC[C@]2(O)C(=O)CO` [prednisolone], the “effect of pH-dependent colon targeted film coating on in vitro release profile of solid SMEDDS” value in data set [5] is reported as “not impacted”.

By solubility is commonly meant how much of the substance goes into solution per volume.
